Where a name gives a salt, the structure may show the parent alone.

In the first experiment the target is T1, IRAK4 (Homo sapiens, UniProt Q9NWZ3).
T1 sequence (Q9NWZ3 1-460): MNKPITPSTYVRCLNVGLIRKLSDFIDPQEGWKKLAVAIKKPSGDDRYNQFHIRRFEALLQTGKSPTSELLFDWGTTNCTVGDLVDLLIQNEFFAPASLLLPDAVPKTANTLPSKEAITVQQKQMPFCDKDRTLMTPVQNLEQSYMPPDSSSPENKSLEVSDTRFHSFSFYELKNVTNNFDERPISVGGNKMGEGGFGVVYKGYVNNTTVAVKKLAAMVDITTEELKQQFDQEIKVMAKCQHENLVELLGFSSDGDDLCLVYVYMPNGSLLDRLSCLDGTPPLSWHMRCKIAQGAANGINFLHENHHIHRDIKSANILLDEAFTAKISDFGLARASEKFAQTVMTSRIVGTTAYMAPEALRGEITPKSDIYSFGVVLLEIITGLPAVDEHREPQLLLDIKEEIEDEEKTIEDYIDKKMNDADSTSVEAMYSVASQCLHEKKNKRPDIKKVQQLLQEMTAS
Briefly: biochemical.
Conditions: not given
In general, IC50 refers to the concentration that gives 50% inhibition. Read a high IC50 as lower potency. `COc1ccn2ncc(NC(=O)c3cn4cc(C56COC(C)(C5)C6)nc4cc3OC(C)C)c2n1` [Example 300, 7-Isopropoxy-N-(5-methoxypyrazolo[1,5-a]pyrimidin-3-yl)-2-(1-methyl-2-oxabicyclo[2.1.1]hexan-4-yl)imidazo[1,2-a]pyridine-6-carboxamide] displayed an IC50 of 0.0022 µM.
Molecule `CCOc1cc2nc([C@H]3C[C@H]3F)cn2cc1C(=O)Nc1cccc(OC)n1` [Example 79] showed an IC50 of 0.0126 µM. This IC50 is about 5.7-fold higher than that of the molecule before.
For the molecule `COc1cccc(NC(=O)c2cn3cc(C4C5COCC54)nc3cc2OC(C)C)n1` (stereo not drawn) [Example 254, 2-(3-Oxabicyclo[3.1.0]hexan-6-yl)-7-isopropoxy-N-(6-methoxypyridin-2-yl)imidazo[1,2-a]pyridine-6-carboxamide], the IC50 was determined as 0.001 µM.
On the same count and under the same terms, next, `CC12CCC(c3cn4cc(C(=O)Nc5cnc6cccnn56)c(OC5CCC5)cc4n3)(CO1)C2` (stereo not drawn) [Example 649, 7-cyclobutoxy-N-(imidazo[1,2-b]pyridazin-3-yl)-2-(1-methyl-2-oxabicyclo[2.2.1]heptan-4-yl)imidazo[1,2-a]pyridine-6-carboxamide]: 0.0002 µM.
The same measure, in the same setting: next, `Cn1ccc(NC(=O)c2cn3cc([C@]45CC[C@](C)(C4)OC5)nc3nc2OC2CCC2)n1` (single isomer, unassigned) [Example 648]: 0.0045 µM; `C[C@@H](Oc1cc2nc(C34COC(C)(C3)C4)cn2cc1C(=O)Nc1cccc(C(F)F)n1)C1CC1` (single isomer, unassigned) [Example 655]: 0.0004 µM; `CC(C)Oc1cc2nc(C34CCC(C)(C3)OC4)cn2cc1C(=O)Nc1cccc(C(F)(F)F)c1F` (stereo not drawn) [Example 502, N-(2-fluoro-3-(trifluoromethyl)phenyl)-7-isopropoxy-2-(1-methyl-2-oxabicyclo[2.2.1]heptan-4-yl)imidazo[1,2-a]pyridine-6-carboxamide]: 0.0004 µM.
On the same count and under the same terms, next, `CC12CC(c3cn4cc(C(=O)Nc5cnn6cccnc56)c(OC5CCC5)nc4n3)(CO1)C2` [Example 371, 7-Cyclobutoxy-2-(1-methyl-2-oxabicyclo[2.1.1]hexan-4-yl)-N-(pyrazolo[1,5-a]pyrimidin-3-yl)imidazo[1,2-a]pyrimidine-6-carboxamide]: 0.0003 µM; `CC(C)Oc1cc2nc(C34COC(C3)C4)cn2cc1C(=O)Nc1cccn(C(F)F)c1=O` [Example 547, 2-(2-Oxabicyclo[2.1.1]hexan-4-yl)-N-(1-(difluoromethyl)-2-oxo-1,2-dihydropyridin-3-yl)-7-isopropoxyimidazo[1,2-a]pyridine-6-carboxamide]: 0.0008 µM.
`COc1cccc(NC(=O)c2cn3cc(C45CCC(C)(C4)OC5)nc3cc2OC2CCC2)n1` (stereo not drawn) [Example 541, 7-Cyclobutoxy-N-(6-methoxypyridin-2-yl)-2-(1-methyl-2-oxabicyclo[2.2.1]heptan-4-yl)imidazo[1,2-a]pyridine-6-carboxamide] registered an IC50 of 0.0002 µM.
Same read-out and setting: next, `CC(C)Oc1cc2nc(C34CCC(C)(C3)OC4)cn2cc1C(=O)Nc1cccn(C)c1=O` (stereo not drawn) [Example 505, 7-Isopropoxy-N-(1-methyl-2-oxo-1,2-dihydropyridin-3-yl)-2-(1-methyl-2-oxabicyclo[2.2.1]heptan-4-yl)imidazo[1,2-a]pyridine-6-carboxamide]: 0.0005 µM; `O=C(Nc1cccc(C(F)F)n1)c1cc(Cl)c2nc(C3CCOCC3)cn2c1` [Example 214]: 0.0715 µM.
For the molecule `CCOc1cc2nc([C@@H]3CC3(F)F)cn2cc1C(=O)Nc1cccc(OC)n1` (single isomer, unassigned) [Example 69], the IC50 came out at 0.0444 µM.
Regarding `CC(C)Oc1cc2nc(C34COC(C)(C3)C4)c(Cl)n2cc1C(=O)Nc1cccc(C(F)F)n1` [Example 229, 3-Chloro-N-(6-(difluoromethyl)pyridin-2-yl)-7-isopropoxy-2-(1-methyl-2-oxabicyclo[2.1.1]hexan-4-yl)imidazo[1,2-a]pyridine-6-carboxamide], the midpoint of inhibition, the IC50, lay at 0.0393 µM.
`CC(C)Oc1nc2nc(C34COC(C)(C3)C4)cn2cc1C(=O)Nc1ccn(C(F)F)n1` [Example 361, N-(1-(difluoromethyl)-1H-pyrazol-3-yl)-7-isopropoxy-2-(1-methyl-2-oxabicyclo[2.1.1]hexan-4-yl)imidazo[1,2-a]pyrimidine-6-carboxamide] returned an IC50 of 0.0037 µM.
With `CCOc1nc(C(=O)Nc2cc(F)cnc2OC)cn2cc([C@H]3CCCOC3)nc12` (single isomer, unassigned) [Example 595], the IC50 came out at 0.0128 µM.
The same measure, in the same setting: then `Cn1ccc(NC(=O)c2cn3cc(C4CC4)nc3c(OC3CC3)n2)n1` [Example 281, 8-Cyclopropoxy-2-cyclopropyl-N-(1-methyl-1H-pyrazol-3-yl)imidazo[1,2-a]pyrazine-6-carboxamide], with 0.0264 µM; and `CC[C@@H](C)Oc1cc2nc(C34COC(C)(C3)C4)cn2cc1C(=O)Nc1cnn2cc(C)cnc12` [Example 560], with 0.0012 µM.
With `CC(C)Oc1c(C(=O)Nc2cccc(C(F)F)n2)cn2cc(C34COC(CF)(C3)C4)nc2c1F` [Example 269, N-(6-(Difluoromethyl)pyridin-2-yl)-8-fluoro-2-(1-(fluoromethyl)-2-oxabicyclo[2.1.1]hexan-4-yl)-7-isopropoxyimidazo[1,2-a]pyridine-6-carboxamide], the IC50 is 0.0012 µM.
Same read-out and setting: then `COc1ncccc1NC(=O)c1cn2cc(C3CCOCC3)nc2c(OC)n1` [Example 208], with 0.0209 µM; and `O=C(Nc1cccc(C(F)(F)F)n1)c1cn2cc(C3CCOCC3)nc2cn1` [Example 82], with 0.119 µM.
Molecule `COc1ncccc1NC(=O)c1cn2cc(C34COC(CF)(C3)C4)nc2c(OC(C)C)n1` [Example 339, 2-(1-(Fluoromethyl)-2-oxabicyclo[2.1.1]hexan-4-yl)-8-isopropoxy-N-(2-methoxypyridin-3-yl)imidazo[1,2-a]pyrazine-6-carboxamide] registered an IC50 of 0.0008 µM. This IC50 is about 150-fold lower than that of the molecule before.
Take `CCOc1nc(C(=O)Nc2cccc(OC)n2)cn2cc(C34COC(C)(C3)C4)nc12` [Example 486, 8-Ethoxy-N-(6-methoxypyridin-2-yl)-2-(1-methyl-2-oxabicyclo[2.1.1]hexan-4-yl)imidazo[1,2-a]pyrazine-6-carboxamide]: it took 0.0075 µM to reach half-maximal inhibition (IC50).
Regarding `CC(C)Oc1nc2nc(C34CCC(C)(CC3)OC4)cn2cc1C(=O)Nc1cnn2cccnc12` [Example 431], half-maximal inhibition (IC50) required 0.0008 µM.
On the same count and under the same terms, then `CC(C)Oc1nc(C(=O)Nc2cccn(C)c2=O)cn2cc(C34CCC(C)(CC3)OC4)nc12` [Example 427, 8-Isopropoxy-N-(1-methyl-2-oxo-1,2-dihydropyridin-3-yl)-2-(1-methyl-2-oxabicyclo[2.2.2]octan-4-yl)imidazo[1,2-a]pyrazine-6-carboxamide], with 0.0007 µM.
The same measure, in the same setting: next, `CC(C)Oc1cc2nc(C34COC(C)(C3)C4)cn2cc1C(=O)Nc1cccnc1OC(F)F` [Example 222]: 0.0081 µM.
For the molecule `COc1ncccc1NC(=O)c1cn2cc(C34CCC(C3)OC4)nc2cc1OC(C)C` (stereo not drawn) [Example 249], the IC50 is 0.0007 µM. This IC50 lies about 12-fold lower than the previous one.
In the case of `Cc1cnc2c(NC(=O)c3cn4cc([C@]56CO[C@H](CCO5)C6)nc4cc3OC(C)C)cnn2c1` (single isomer, unassigned) [Example 646], the IC50 turned out to be 0.0008 µM.

Staying with this experiment, now noted: IRAK4 Biochemical Assay (1 mM ATP, 2 h) IC50 (μM), 1 mM ATP, 2 h, 100 pM IRAK4.
`CCc1cccc(NC(=O)c2cn3cc(C4CC(OC)C4)nc3cc2OC)n1` (stereo not drawn) [Example 61] showed a half-inhibitory concentration (IC50) of 0.0351 µM.
On the same count and under the same terms, next, `CC(C)Oc1nc2nc(C34COC(C)(C3)C4)cn2cc1C(=O)Nc1cccc(C(F)F)n1` [Example 218]: 0.0002 µM.
Take `O=C(Nc1cccc(C(F)F)n1)c1cn2cc(C3CC3)nc2cc1OC1CCOCC1` [Example 473, 2-Cyclopropyl-N-(6-(difluoromethyl)pyridin-2-yl)-7-((tetrahydro-2H-pyran-4-yl)oxy)imidazo[1,2-a]pyridine-6-carboxamide]: the IC50 is 0.0064 µM.
As for `O=C(Nc1cccc(C(F)F)n1)c1cn2cc(C3CC3)nc2cc1OC1CC(F)(F)C1` [Example 476, 2-Cyclopropyl-7-(3,3-difluorocyclobutoxy)-N-(6-(difluoromethyl)pyridin-2-yl)imidazo[1,2-a]pyridine-6-carboxamide], the IC50 turned out to be 0.0088 µM. This IC50 and that of the molecule before are within 1.5-fold of each other.
Still for that read-out and setting: next, `CC1(C)CC(Oc2cc3nc(C45COC(C)(C4)C5)cn3cc2C(=O)Nc2cccn(C(F)F)c2=O)CO1` (stereo not drawn) [Example 447, N-(1-(difluoromethyl)-2-oxo-1,2-dihydropyridin-3-yl)-7-((5,5-dimethyltetrahydrofuran-3-yl)oxy)-2-(1-methyl-2-oxabicyclo[2.1.1]hexan-4-yl)imidazo[1,2-a]pyridine-6-carboxamide]: 0.0014 µM.
With `CC(C)Oc1nc2nc(C34COC(C)(C3)C4)cn2cc1C(=O)Nc1ccn(C2CCC2)n1` [Example 364, N-(1-cyclobutyl-1H-pyrazol-3-yl)-7-isopropoxy-2-(1-methyl-2-oxabicyclo[2.1.1]hexan-4-yl)imidazo[1,2-a]pyrimidine-6-carboxamide trifluoroacetate], the IC50 came out at 0.0057 µM.
On the same count and under the same terms, next, `COc1nc(C(=O)Nc2cccc(C(F)F)n2)cn2cc(C3CCOCC3)nc12` [Example 206, N-[6-(difluoromethyl)-2-pyridyl]-8-methoxy-2-tetrahydropyran-4-ylimidazo[1,2-a]pyrazine-6-carboxamide trifluoroacetate]: 0.0128 µM.
Molecule `CC(C)Oc1nc2nc(C34COC(C)(C3)C4)cn2cc1C(=O)Nc1cnn(C)n1` [Example 365, 7-Isopropoxy-N-(2-methyl-2H-1,2,3-triazol-4-yl)-2-(1-methyl-2-oxabicyclo[2.1.1]hexan-4-yl)imidazo[1,2-a]pyrimidine-6-carboxamide trifluoroacetate] registered an IC50 of 0.0128 µM.

These data come from patent US20230087118A1, “IMIDAZO[1,2-a][sequence] DERIVATIVES AND THEIR USE IN THE TREATMENT OF DISEASE” (priority 2019, published 2023).
